Patent publication US7407947B2, “Amphoteric sterols and the use thereof” (Novosom AG, priority 2001, dated 2008)

Experiment: Isoelectric point of the sterol derivative
Type: physicochemical
Conditions: stated as very close to pH 6.5

isoelectric point: ~6.5
SMILES: CC(C)CCCC(C)C1CCC2C3CC=C4CC(OC(=O)CCC(=O)NC(Cc5cnc[nH]5)C(=O)O)CCC4(C)C3CCC12C [Hist-Chol, Cholesteryl-L-histidyl Succinate]
